Test results reported in patent US5416222A, “3-pyrrolidine methanamines wherein the alpha-carbon is substituted by 1 or 2 lower alkyl groups which are intermediates for pyridone-carboxylic acid derivatives” (Daiichi Seiyaku Co., Ltd., priority 1985, dated 1995).
≈ marks a conversion by molar mass, not a printed value.

Key:
E. coli, NIHJ = experiment: antimicrobial activity, MIC, standard process of Japan Society of Chemotherapy; type: cell-based; details: Escherichia coli, read-out: minimum growth inhibitory concentration (MIC)
In short: (§1)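 Activity was determined by the standard procedure designated by the Japan Society of Chemotherapy. Values are the minimum growth inhibitory concentrations, given in μg/ml.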

Pr. mirabilis, IF03849 = experiment: as above; type: cell-based; details: Proteus mirabilis, IF03849, Pr. mirabilis, read-out: minimum growth inhibitory concentration (MIC)
In short: as §1

Pr. vulgaris, 3167 = experiment: as above; type: cell-based; details: Proteus vulgaris, 3167, Pr. vulgaris, read-out: minimum growth inhibitory concentration (MIC)
In short: as §1

Ps. aeruginosa, 2063 = experiment: as above; type: cell-based; details: Pseudomonas aeruginosa, 2063, Ps. aeruginosa, read-out: minimum growth inhibitory concentration (MIC)
In short: as §1

Ps. aeruginosa, 2128 = experiment: as above; type: cell-based; details: Pseudomonas aeruginosa, 2128, Ps. aeruginosa, read-out: minimum growth inhibitory concentration (MIC)
In short: as §1

Ps. cepacia, IID1340 = experiment: as above; type: cell-based; details: Burkholderia cepacia, IID1340, Ps. cepacia, read-out: minimum growth inhibitory concentration (MIC)
In short: as §1

Ps. maltophilia, IID1275 = experiment: as above; type: cell-based; details: Stenotrophomonas maltophilia, IID1275, Ps. maltophilia, read-out: minimum growth inhibitory concentration (MIC)
In short: as §1

S. aureus, 209P = experiment: as above; type: cell-based; details: Staphylococcus aureus, read-out: minimum growth inhibitory concentration (MIC)
In short: as §1

S. epidermidis, 56500 = experiment: as above; type: cell-based; details: Staphylococcus epidermidis, 56500, S. epidermidis, read-out: minimum growth inhibitory concentration (MIC)
In short: as §1

Ser. marcescens, 13001 = experiment: as above; type: cell-based; details: Serratia marcescens, 13001, Ser. marcescens, read-out: minimum growth inhibitory concentration (MIC)
In short: as §1

Sh. flexneri, 2a5503 = experiment: as above; type: cell-based; details: Shigella flexneri, read-out: minimum growth inhibitory concentration (MIC)
In short: as §1

[1] = test system: Str. faecalis, ATCC 19433; experiment: as above; type: cell-based; details: Enterococcus faecalis, ATCC19433, Str. faecalis, read-out: minimum growth inhibitory concentration (MIC)
In short: as §1

Str. pyogenes, G-36 = experiment: as above; type: cell-based; details: Streptococcus pyogenes, G36, Str. pyogenes, read-out: minimum growth inhibitory concentration (MIC)
In short: as §1

physchem = type: physicochemical; details: distilled water, room temperature (23° to 26° C.), 30 minutes agitation; read-out: Water solubility
Description: (§2) The water-solubility and acute toxicity of the compounds of the present invention and the comparative compounds, were measured. The results obtained are shown hereunder. The water-solubility was measured by the following method.
(i) Preparation of standard solution
About 400 μg of the sample to be measured was accurately weighed (the weight was defined as W μg), and 0.1N NaOH solution was added thereto to bring the whole volume to 50 ml. The UV absorbance of a given amount of the solution was measured and the measured absorbance was defined as A1.
(ii) Preparation of sample to be measured
Distilled water was added to the sample to be measured (fine powder) in such amount that the sample was not completely dissolved but suspended, and then the suspension was vigorously agitated at room temperature (between 23° and 26° C.) for 30 minutes. Insoluble matter of the sample was removed therefrom by filtration, after which 3 ml sample of the filtrate (satulated aqueous solution of the sample) was taken. 3 ml of 0.2N NaOH solution was added to the filtrate sample to bring the total volume to 6 ml (i.e. the filtrate was diluted to 50% concentration.) To 1 ml of the resulting solution, 0.1N NaOH solution was further added to bring the total volume to 25 ml […]. In this connection, degree of dilution was occasionally changed, depending on degree of UV absorbance. The UV absorbance of the given amount of the solution was measured and the resulting absorbance was defined to as A2. Where the number of dilution is N, water-solubility (s) is obtained from the following equation: [formula]

acute toxicity to mouse = type: in vivo; details: mouse, in vivo, iv; 200 mg/kg
Description: as §2
*200 mg/kg; i.v, (deaths/total number) As is obvious from the above

[2] = in words, prior art discussion; cited from earlier work
[3] = test system: Gram-negative microorganisms; details: in words, prior art discussion; cited from earlier work
[4] = test system: Gram-positive microorganisms; details: in words, prior art discussion; cited from earlier work

Q: Which MIC (E. coli, NIHJ) does the source give for `CCNCC1CCN(c2c(F)cc3c(=O)c(C(=O)O)cn(CC)c3c2F)C1` (stereo not drawn) [Compound C, 1-Ethyl-7-[3-(ethylamino)methyl]-1-pyrolidinyl-6,8-difluoro-1,4-dihydro-4-oxo-3-quinolinecarboxylic acid, reference compound] here?
A: Its MIC is at most 0.05 µg/mL.

Q: And the MIC (Pr. mirabilis, IF03849)?
A: Its MIC is 0.39 µg/mL (≈ 1.03 µM).

Q: And the MIC (Pr. vulgaris, 3167)?
A: Its MIC is 0.2 µg/mL (≈ 0.527 µM).

Q: What about the MIC (Ps. aeruginosa, 2063) of the same molecule?
A: The MIC was 0.78 µg/mL (≈ 2.06 µM).

Q: And the MIC (Ps. aeruginosa, 2128)?
A: The MIC was 0.39 µg/mL (≈ 1.03 µM).

Q: And the MIC (Ps. cepacia, IID1340)?
A: Its MIC is 1.56 µg/mL (≈ 4.11 µM).

Q: And the MIC (Ps. maltophilia, IID1275)?
A: The MIC was 0.78 µg/mL (≈ 2.06 µM).

Q: And the MIC (S. aureus, 209P)?
A: Its MIC is 0.1 µg/mL (≈ 0.264 µM).

Q: And the MIC (S. epidermidis, 56500)?
A: The MIC was 0.39 µg/mL (≈ 1.03 µM).

Q: And the MIC (Ser. marcescens, 13001)?
A: The MIC was 0.2 µg/mL (≈ 0.527 µM).

Q: And the MIC (Sh. flexneri, 2a5503)?
A: The MIC was at most 0.05 µg/mL.

Q: What about the MIC [1] of the same molecule?
A: Its MIC is 0.39 µg/mL (≈ 1.03 µM).

Q: What about the MIC (Str. pyogenes, G-36) of the same molecule?
A: Its MIC is 0.78 µg/mL (≈ 2.06 µM).

Q: What about the solubility at 0.5 h (physchem) of the same molecule?
A: The solubility at 0.5 h was 400 µg/mL (≈ 1050 µM).

Q: What about the mortality (acute toxicity to mouse) of the same molecule?
A: The mortality was 50%.

Q: And the “water-solubility (prior art compounds)” value [2]?
A: The value was “good water-solubility”.

Q: And the “antimicrobial activity against Gram-negative microorganisms (prior art compounds)” value [3]?
A: Its value is “a little weak”.

Q: And the “antimicrobial activity against Gram-positive microorganisms (prior art compounds)” value [4]?
A: Its value is “strong antimicrobial activity”.
